Test results: patent US20260272879A1, “ANION-BINDING AROMATIC OLIGOAMIDE MACROCYCLES AND METHODS OF MAKING AND USING SAME” (The Research Foundation for The State University of New York, priority 2023, published 2026)
Blank lines part the entries; values can stand above or below the compound they belong to.

Experiments:
[1] = 1H NMR titration, binding of chloride; conditions: n-Bu4N^+ salt, CD3CN/CDCl3 (1/9, v/v), room temperature
Procedure: ^1H NMR Titration methods. Titrations of 4c and 6c with anions as their tetra-n-butyl ammonium (TBA) salts were carried out by ^1H NMR (400 MHz on Bruker-400) at room temperature (298 K). 0.5 mL of receptor 4c (5.0 mM) or 6c (2.0 mM) were prepared in the rubber-cap NMR tubes. Aliquots of concentrated TBACl or TBAI solution (50 mM for the titration of 4c and 20 mM for the titration of 6c) containing the same amount of receptors were added into the receptor solution using 20 microliter pipette. An initial ^1H NMR spectrum was collected and additional spectra were obtained after each injection of TBACl or TBAI solution. All titration ^1H NMR spectra were stacked together and the chemical shifts of amide protons were then fitted to the proposed 1:1 binding model using BindFit v0.5 (http://app.supramolecular.org/bindfit/).
(§1) Anion binding with four amides, i.e., L1mer-L4mer, was studied in the mixed solvents of CD3CN/CDCl3 (1/9, v/v) by titrating an amide host with 0 to 5 equivalents of tetrabutylammonium (n-Bu4N^+) salt of the corresponding anion. The binding of chloride, bromide, iodide, and nitrate was examined with the four amides in CDCl3 containing 10% CD3CN. The titration data were collected by monitoring the changes in chemical shifts of the backbone amide protons and the inner aromatic protons with varying ratios of the anion guests. Job plots indicate that these linear oligoamides and their anion guests bind in a 1:1 stoichiometry.
(§2) The binding of anions by macrocycle 7c was examined in CH3CN/CHCl3 (6/4, v/v) and in DMSO by titrating with various equivalents of the salts of chloride, iodide. nitrate, and dihydrogen phosphate, with tetrabutylammonium (n-Bu4N^+) being the counterion ion. Following the changes in the chemical shifts of backbone amide protons and “inner” aromatic protons allowed the determination of binding constants.
^1H NMR titration methods. Titrations of c5a and c5b with anions as their tetra-n-butylammonium (TBA), tetra-ethylammonium (TEA) and tetra-methylammonium (TMA) salts were carried out by ^1H NMR (400 MHz) at 25° C. […]

[2] = 1H NMR titration, binding of nitrate; conditions: n-Bu4N^+ salt, CD3CN/CDCl3 (1/9, v/v), room temperature
Description: as §1, §2
^1H NMR titration methods. Titrations of c5a and c5b with anions as their tetra-n-butylammonium (TBA), tetra-ethylammonium (TEA) and tetra-methylammonium (TMA) salts were carried out by ^1H NMR (400 MHz) at 25° C. 0.4 mL of corresponding hosts solutions were prepared in the rubber-cap NMR tubes. Aliquots of concentrated guest solution containing hosts were added into the NMR tubes using 20 microliter pipette. An initial ^1H NMR spectrum was collected and additional spectra were obtained after each injection of guest solution. All titration ^1H NMR spectra were stacked together and the chemical shifts of the internal aromatic CH proton were then fitted to 1:1 binding model using BindFit v0.5 (http://app.supramolecular.org/bindfit/) to evaluate binding constants to anions.

Solubility = type: physicochemical
[3] = pH 8.3, in water; cited from earlier work

Ka of chloride [1]: 39 M⁻¹
Compound: CCCCCCCCCC(=O)Nc1ccc(NC(=O)C(C)(C)COCCCCCCCC)c(C(=O)NCCCCCC)c1 [Compound L1mer]

Ka of nitrate [2]: ~10000 M⁻¹
Ka of chloride [1]: over 1,000 M^−1
Compound: CCCCCCCCCC(=O)Nc1ccc(NC(=O)C(C)(C)COCCCCCCCC)c(C(=O)Nc2ccc(NC(=O)C(C)(C)COCCCCCCCC)c(C(=O)Nc3ccc(NC(=O)C(C)(C)COCCCCCCCC)c(C(=O)Nc4ccc(NC(=O)C(C)(C)COCCCCCCCC)c(C(=O)NCCCCCC)c4)c3)c2)c1 [Compound L4mer]

Compound: COCCOCCOCCOCC(C)(C)C(=O)Nc1ccc2cc1C(=O)Nc1ccc(NC(=O)C(C)(C)COCCOCCOCCOC)c(c1)C(=O)Nc1ccc(NC(=O)C(C)(C)COCCOCCOCCOC)c(c1)C(=O)Nc1ccc(NC(=O)C(C)(C)COCCOCCOCCOC)c(c1)C(=O)Nc1ccc(NC(=O)C(C)(C)COCCOCCOCCOC)c(c1)C(=O)N2 [c5b]
solubility in organic solvents (Solubility; variety of / many organic solvents): soluble
solubility in water (Solubility; water): ~ 1 mM

Compound: SBP: sulfate-binding protein (SBP) from the gram-negative bacterium S. typhimurium
Ka for the sulfate ion [3]: 8.3e+06 M⁻¹
